Patent US9441003B2, “Membrane staining dyes containing phosphorescent transition metal polypyridine complexes” (City University of Hong Kong, priority 2014, dated 2016)

How the values were obtained:
Type in all cases: cell-based
[1] = system: MCF-7 cells; assay: Confocal microscopy imaging of MCF-7 cells treated with complexes; details: 50 μM, 37° C., 1 h, excitation 405 nm
Description: (§1) Experiments were conducted to show the working of the staining dye of the present invention. HeLa and MCF-7 cells were grown on sterile glass coverslips in a 60-mm tissue culture dish and incubated at 37° C. under a 5% CO2 atmosphere for 48 h. The culture medium was removed and replaced with medium/DMSO (99:1, v/v) containing the complex at a concentration of 50 μM. After incubation for 1 h, the coverslips were washed with PBS (5 mL×3), and then mounted onto slides for measurements. Imaging was performed using a confocal microscope (Leica TCS SPE) with an excitation wavelength at 405 nm. The emission was measured using a long-pass filter at 532 nm. FIG. 6 illustrates experimental results with fluorescence laser-scanning confocal microscopy images of HeLa cells treated with complexes (50 μM) at 37° C. for 1 h. FIG. 7 illustrates experimental results with fluorescence laser-scanning confocal microscopy images of MCF-7 cells treated with complexes (50 μM) at 37° C. for 1 h.

[2] = system: HeLa cells; assay: Confocal microscopy imaging of HeLa cells treated with complexes; details: 50 μM, 37° C., 1 h, excitation 405 nm
Description: as §1

[3] = system: MCF-7 cells; assay: Co-staining with CellMask deep red plasma membrane stain; details: complex 50 μM 1 h, CellMask deep red plasma membrane stain 0.25 μL/ml 5 min
Description: Further experiments were conducted to co-stain cells with the complex [Ir(ppyCH2NH—C10)2(bpy-tris)]Cl and the CellMask™ deep red plasma membrane stain. […] Please see FIG. 8 showing fluorescence laser-scanning confocal microscopy images of MCF-7 cells treated with the bpy-tris complex (50 μM, 1 h) and the CellMask™ deep red plasma membrane stain (0.25 μL/ml, 5 min).

Compound: Cc1ccnc(-c2cc(C(=O)O)ccn2)c1 [bpy-COOH]
- cellular staining pattern (membrane staining / localization) [1]: much better membrane staining
- cellular staining pattern (membrane staining / localization) [2]: much better membrane staining

Compound: [Ir(ppyCH2NH—C10)2(bpy-tris)]Cl
- cellular staining pattern (membrane staining / localization) [1]: much better membrane staining
- colocalization coefficient [3]: 92.9%
- cellular staining pattern (membrane staining / localization) [2]: much better membrane staining
